According to patent publication US7524887B2, “2-amino-1,3-propanediol compounds for the treatment of acute pain” (Sanofi-Aventis Deutschland GmbH, priority 2003, dated 2009):

Experiments:
[1] = tested on: Sprague Dawley rats (formalin model of acute pain); experiment: Formalin test after interperitoneal injection of compound 1; assay type: in vivo, rat; settings: for Mean flinches in 5 min interval: 1 mg/kg interperitoneally in PEG 3 hours prior to formalin, n = 5 rats
Experimental: Animals: Male Sprague Dawley rats weighing 300-350 g were purchased from Charles River Wiga GmbH (Sulzfeld, Germany). The animals had free access to food and water prior to the experiments. They were maintained in climate- and light-controlled rooms (24+0.5° C.). Each animal was used at one occasion only. In all experiments the ethics guidelines for investigations in conscious animals were obeyed and the procedures were approved by the local Ethics Committee. Formalin test: The formalin assay was performed in a dedicated room with restriction on sound level and activity. 2-amino-2-[2-(4-octylphenyl)ethyl]-1,3-propanediol hydrochloride (compound 1) was dissolved in polyethylene-glycol (PEG) at a concentration of 1 mg/ml and injected interperitoneally (1 mg/kg) 3 hours prior to the formalin tests were performed with compound 1. 50 μl of a 5% formaldehyde solution was injected subcutaneously (s.c.) into the dorsal surface of one hind paw. Rats were placed into a plexiglas chamber surrounded by mirrors to allow an unobstructed view of the paws. Flinches were counted in one-minute intervals up to 60 min starting right after formalin injection. Flinches of 5 min intervals were summarized as mean flinches per minute +SEM. Statistical analysis was performed using the student's t-test (*p<0.04).

[2] = tested on: Sprague Dawley rats (formalin model of acute pain); experiment: Formalin test after intrathecal application of S1P; assay type: in vivo, rat; settings: for Mean flinches in 5 min interval: 20 μl of 10 μM S1P intrathecal 15 min prior to formalin, mean of six animals
Experimental: The analgesic effect of sphingosine-1-phosphate (S1P) was determined by intrathecal application to the spinal cord by:
Wild type Sprague Dawley rats were purchased from Charles River Wiga GmbH (Sulzfeld, Germany). The animals had free access to food and water prior to the experiments. They were maintained in climate- and light-controlled rooms (24+0.5° C.). Each animal was used at one occasion only. In all experiments the ethics guidelines for investigations in conscious animals were obeyed, and the procedures were approved by the local Ethics Committee.
Rats were anesthetized with ketamine (60 mg/kg i.p.) and midazolam (0.5 to 1 mg/kg i.p.). The skin was incised above the vertebral column from vertebrae Th13 up to L3. Muscle tissue around L2-3 was cleared away. The processus spinosus of L3 was removed and a laminectomy was done at L2. Polyethylene catheters (ID 0.28 mm, OD 0.61 mm) were then inserted into the peridural space so that the tip of the catheter reached Th9-10. The catheter was fixed with cyanacrylate glue and was externalized in the neck region and the skin was sutured.
Three days after surgery rats were placed into a “freely moving system” (CMA, Stockholm, Sweden) 20 μl of 10 μM S1P, purchased from Tocris (Ellisville, Mo.), were infused through the catheter.
Within 15 min after stopping the infusion the formalin test was performed. 50 μL of a 5% formaldehyde solution were injected subcutaneously (s. c.) into the dorsal surface of one hind paw. Flinches were counted in one-minute intervals up to 60 min starting right after formalin injection. Flinches of 5 min intervals were summarized as mean flinches per minute. To compare the nociceptive behavior between groups the sum of flinches during the one-hour observation period were submitted to the Students t-test.
S1P was dissolved in DMSO to a final concentration of 2.5 mM and then diluted 1:250 in PBS. 20 μl of 10 μM S1P or 20 μl 0.1 M phosphate buffered saline, pH 7.2 (PBS,) in DMSO were given to adult rats by intrathecal application 15 minutes prior to the formalin injection. Then, flinches were counted in 5 minutes intervals over a period of 60 minutes.

SMILES: CCCCCCCCc1ccc(CCC(N)(CO)CO)cc1.Cl [Compound 1, 2-amino-2-[2-(4-octylphenyl)ethyl]-1,3-propanediol hydrochloride]
- Number of nociceptive responses for phase 2A compared to the control animals ([1]; phase 2A = 20 to 35 minutes after formalin injection, 1 mg/kg interperitoneally, student's t-test): significant decrease
- Mean flinches in 5 min interval ([1]; time 5 min after formalin): 85.4
- Mean flinches in 5 min interval ([1]; time 10 min after formalin): 41.2
- Mean flinches in 5 min interval ([1]; time 15 min after formalin): 33.6
- Mean flinches in 5 min interval ([1]; time 20 min after formalin): 29.6
- Mean flinches in 5 min interval ([1]; time 25 min after formalin): 31.6
- Mean flinches in 5 min interval ([1]; time 30 min after formalin): 51.4
- Mean flinches in 5 min interval ([1]; time 35 min after formalin): 49.2
- Mean flinches in 5 min interval ([1]; time 40 min after formalin): 48.0
- Mean flinches in 5 min interval ([1]; time 45 min after formalin): 48.6
- Mean flinches in 5 min interval ([1]; time 50 min after formalin): 39.8
- Mean flinches in 5 min interval ([1]; time 55 min after formalin): 42.6
- Mean flinches in 5 min interval ([1]; time 60 min after formalin): 42.2

SMILES: CCCCCCCCCCCCC/C=C/[C@@H](O)[C@@H](N)COP(=O)(O)O [Compound S1P, sphingosine-1-phosphate]
- Number of nociceptive responses for phase 2A compared to PBS/DMSO-treated animals ([2]; phase 2A = 20 to 35 minutes after formalin injection, 20 μl of 10 μM S1P intrathecal): significant decrease
- Mean flinches in 5 min interval ([2]; time 5 min after formalin): 60.9
- Mean flinches in 5 min interval ([2]; time 10 min after formalin): 24.6
- Mean flinches in 5 min interval ([2]; time 15 min after formalin): 12.7
- Mean flinches in 5 min interval ([2]; time 20 min after formalin): 17.1
- Mean flinches in 5 min interval ([2]; time 25 min after formalin): 19.6
- Mean flinches in 5 min interval ([2]; time 30 min after formalin): 24.7
- Mean flinches in 5 min interval ([2]; time 35 min after formalin): 31.4
- Mean flinches in 5 min interval ([2]; time 40 min after formalin): 41.9
- Mean flinches in 5 min interval ([2]; time 45 min after formalin): 49.3
- Mean flinches in 5 min interval ([2]; time 50 min after formalin): 41.3
- Mean flinches in 5 min interval ([2]; time 55 min after formalin): 49.0
- Mean flinches in 5 min interval ([2]; time 60 min after formalin): 38.0
